We go through 1 compound from patent US11192866B2, “Synthesis of tetracyclines and analogues thereof” (President and Fellows of Harvard College, priority 2004, dated 2021).

The assay concerns Gram-positive strains. The assay is described as follows: Whole-cell antibacterial MIC assay (NCCLS serial dilution), Gram-positive strains. The note with it: each of the Gram-positive strains examined, including strains with resistance to tetracycline, methicillin, and vancomycin. The format is cell-based. On the procedure:
The efficiencies of the synthetic sequences have allowed for the preparation of sufficient quantities of each tetracycline analog for antibacterial testing using standard serial-dilution techniques (5-20 mg amounts). Minimum inhibitory concentrations (MICs) are reported for each analog in whole-cell antimicrobial assays using five Gram-positive and five Gram-negative organisms (FIGS. 18A to 18C).
Whole-cell antibacterial activity was determined according to methods recommended by the NCCLS (National Committee for Clinical Laboratory Standards. 2002. Methods for dilution antimicrobial susceptibility tests for bacteria that grow aerobically: approved standard-fifth edition. NCCLS document M100-S12. National Committee for Clinical Laboratory Standards. Wayne, Pa.; incorporated herein by reference). Test compounds were dissolved in dimethyl sulfoxide (DMSO) and the resulting solutions were diluted in water (1:10) to produce stock solutions with a final concentration of 256 μg tetracycline analog per mL. In a 96-well microtiter plate, 50-μL aliquots of stock solutions were diluted serially into cation-adjusted Mueller-Hinton broth (MHB; Becton-Dickinson, Cockeysville, Md.). Test organisms (50 μL aliquots of solutions […]) were then added to the appropriate wells of the microtiter plate. […] The MIC was the lowest concentration of compound determined to inhibit visible growth. […]

Take `CN(C)[C@@H]1C(O)=C(C(N)=O)C(=O)[C@@]2(O)C(O)=C3C(=O)c4c(cc5ccccc5c4O)C[C@H]3C[C@@H]12` [pentacycline derivative 6]: the “antibacterial activity compared with tetracycline” value was “activity equal to or greater than tetracycline”.
